According to patent US8492383B2 (Jewish General Hospital, priority 2002, dated 2013):
Values joined by “and” are separate entries in the source; they are usually repeats but may differ in a detail not shown here. Equal values may be shown once.

Tests used:
[1] = test system: lymphocytes from CLL patients; test: MTT cytotoxic assay, lymphocytes from CLL patients; format: cell-based, human; details: drug alone
I83 cell line = details: drug alone, MTT 72 hours

## O=C(O)CCCc1ccc(N(CCCl)CCCl)cc1 [CLB, chlorambucil]
[1]; CLL patient T^1 (previously treated with CLB)
  LD50: 9.29 µM
[1]; CLL patient T^2 (previously treated with CLB)
  LD50: 23.1 µM
[1]; CLL patient T^3 (previously treated with CLB)
  LD50: 5.56 µM
[1]; CLL patient T^4 (previously treated with CLB)
  LD50: 79.7 µM
[1]; CLL patient T^5 (previously treated with CLB)
  LD50: 49.2 µM
[1]; CLL patient U^1 (untreated)
  LD50: 14.6 µM
[1]; CLL patient U^2 (untreated)
  LD50: 28.49 µM
[1]; CLL patient U^3 (untreated)
  LD50: 20.02 µM
[1]; CLL patient U^4 (untreated)
  LD50: 54.2 µM
[1]; CLL patient U^5 (untreated)
  LD50: 12.27 µM
[1]; CLL patient U^6 (untreated)
  LD50: 18.08 µM
[1]; CLL patient U^7 (untreated)
  LD50: 7.84 µM
I83 cell line
  LD50: 40.66 µM and 40.66 ± 2.80 µM
